# Measured values reported in patent US20160158200A1, “Combinations of Hepatitis C Virus Inhibitors” (priority 2013, published 2016).
# Tested on: HCV genotype-1a variant with glutamine 30 changed to glutamate in the NS5A protein
# Type: cell-based
# Conditions: test compound titrated with BMS-790052 fixed at 200 nM; genotype 1a Q30E replicon
# In short: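 Synergy was assessed by combining several fixed amounts of an NS5A-targeting compound with a titration of the second compound of interest.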
row,SMILES,Fold-Synergistic 1a (Q30E)
1,CC(C)[C@H](NC(=O)c1nccn1C)c1ncc(-c2ccc(-c3ccc(-c4cnc([C@@H](NC(=O)c5nccn5C)C(C)C)[nH]4)cc3)cc2)[nH]1 [Compound S-105],<10 fold
2,O=C(C1CC1)N1CCC[C@H]1c1ncc(-c2ccc(-c3ccc(-c4cnc([C@@H]5CCCN5C(=O)C5CC5)[nH]4)cc3)cc2)[nH]1 [Compound S-109],<10 fold
3,CC(C)CC(=O)N1CCC[C@H]1c1ncc(-c2ccc(-c3ccc(C4=CNC([C@@H]5CCCN5C(=O)CC(C)C)N4)cc3)cc2)[nH]1 (stereo partly drawn) [Compound S-112],<10 fold
4,O=C(c1ccccc1Oc1ccccc1)N1CCC[C@H]1c1ncc(-c2ccc(-c3ccc(-c4cnc([C@@H]5CCCN5C(=O)c5ccccc5Oc5ccccc5)[nH]4)cc3)cc2)[nH]1 [Compound S-114],<10 fold
5,O=C(c1cccc(Oc2ccccc2)c1)N1CCC[C@H]1c1ncc(-c2ccc(-c3ccc(-c4cnc([C@@H]5CCCN5C(=O)c5cccc(Oc6ccccc6)c5)[nH]4)cc3)cc2)[nH]1 [Compound S-116],<10 fold
6,O=C(c1ccc(-c2ccccc2)cc1)N1CCC[C@H]1c1ncc(-c2ccc(-c3ccc(-c4cnc([C@@H]5CCCN5C(=O)c5ccc(-c6ccccc6)cc5)[nH]4)cc3)cc2)[nH]1 [Compound S-117],>10 fold
7,Cc1onc(-c2ccccc2)c1C(=O)N1CCC[C@H]1c1ncc(-c2ccc(-c3ccc(-c4cnc([C@@H]5CCCN5C(=O)c5c(-c6ccccc6)noc5C)[nH]4)cc3)cc2)[nH]1 [Compound S-118],<10 fold
8,O=C(c1cccc2ccccc12)N1CCC[C@H]1c1ncc(-c2ccc(-c3ccc(-c4cnc([C@@H]5CCCN5C(=O)c5cccc6ccccc56)[nH]4)cc3)cc2)[nH]1 [Compound S-119],>10 fold
9,O=C(c1cc2ccccc2[nH]1)N1CCC[C@H]1c1ncc(-c2ccc(-c3ccc(-c4cnc([C@@H]5CCCN5C(=O)c5cc6ccccc6[nH]5)[nH]4)cc3)cc2)[nH]1 [Compound S-120],<10 fold
10,O=C(c1ccc2c(c1)OCO2)N1CCC[C@H]1c1ncc(-c2ccc(-c3ccc(-c4cnc([C@@H]5CCCN5C(=O)c5ccc6c(c5)OCO6)[nH]4)cc3)cc2)[nH]1 [Compound S-121],<10 fold
11,O=C(c1cc2ccccc2o1)N1CCC[C@H]1c1ncc(-c2ccc(-c3ccc(-c4cnc([C@@H]5CCCN5C(=O)c5cc6ccccc6o5)[nH]4)cc3)cc2)[nH]1 [Compound S-122],>10 fold
12,O=C(c1cnc(Cl)c(Cl)c1)N1CCC[C@H]1c1ncc(-c2ccc(-c3ccc(C4=CNC([C@@H]5CCCN5C(=O)c5cnc(Cl)c(Cl)c5)N4)cc3)cc2)[nH]1 (stereo partly drawn) [Compound S-133],<10 fold
13,O=C(N1CCC[C@H]1c1ncc(-c2ccc(-c3ccc(-c4cnc([C@@H]5CCCN5C(=O)C5(c6ccc(F)cc6Cl)CCCC5)[nH]4)cc3)cc2)[nH]1)C1(c2ccc(F)cc2Cl)CCCC1 [Compound S-156],<10 fold
14,O=C(C1Cc2ccccc2O1)N1CCC[C@H]1c1ncc(-c2ccc(-c3ccc(-c4cnc([C@@H]5CCCN5C(=O)C5Cc6ccccc6O5)[nH]4)cc3)cc2)[nH]1 (stereo partly drawn) [Compound S-157],>10 fold
15,CC1(C(=O)N2CCC[C@H]2c2ncc(-c3ccc(-c4ccc(-c5cnc([C@@H]6CCCN6C(=O)C6(C)CC6)[nH]5)cc4)cc3)[nH]2)CC1 [Compound S-160],<10 fold
16,O=C([C@@H]1C[C@H]1c1ccccc1)N1CCC[C@H]1c1ncc(-c2ccc(-c3ccc(-c4cnc([C@@H]5CCCN5C(=O)[C@@H]5C[C@H]5c5ccccc5)[nH]4)cc3)cc2)[nH]1 [Compound S-161],>10 fold
17,O=C(c1cncnc1)N1CCC[C@H]1c1ncc(-c2ccc(-c3ccc(-c4cnc([C@@H]5CCCN5C(=O)c5cncnc5)[nH]4)cc3)cc2)[nH]1 [Compound S-195],<10 fold
18,COc1ccc2c(C(=O)N3CCC[C@H]3c3ncc(-c4ccc(-c5ccc(-c6cnc([C@@H]7CCCN7C(=O)c7nccc8cc(OC)ccc78)[nH]6)cc5)cc4)[nH]3)nccc2c1 [Compound S-198],>100 fold
19,COc1cnc(C(=O)N2CCC[C@H]2c2ncc(-c3ccc(-c4ccc(-c5cnc([C@@H]6CCCN6C(=O)c6ncc(OC)c7ccccc67)[nH]5)cc4)cc3)[nH]2)c2ccccc12 [Compound S-199],>100 fold
20,O=C(c1cnc(Cl)c2ccccc12)N1CCC[C@H]1c1ncc(-c2ccc(-c3ccc(-c4cnc([C@@H]5CCCN5C(=O)c5cnc(Cl)c6ccccc56)[nH]4)cc3)cc2)[nH]1 [Compound S-200],>100 fold
21,COc1cccc2c(C(=O)N3CCC[C@H]3c3ncc(-c4ccc(-c5ccc(-c6cnc([C@@H]7CCCN7C(=O)c7nccc8c(OC)cccc78)[nH]6)cc5)cc4)[nH]3)nccc12 [Compound S-201],>100 fold
22,O=C(c1nccc2ccccc12)N1CCC[C@H]1c1ncc(-c2ccc(-c3ccc(-c4cnc([C@@H]5CCCN5C(=O)c5nccc6ccccc56)[nH]4)cc3)cc2)[nH]1 [Compound S-202],>100 fold
23,O=C(c1cccc2cnccc12)N1CCC[C@H]1c1ncc(-c2ccc(-c3ccc(-c4cnc([C@@H]5CCCN5C(=O)c5cccc6cnccc56)[nH]4)cc3)cc2)[nH]1 [Compound S-203],<10 fold

row,SMILES,Fold-Synergistic 1a (Q30E)
1,COc1ccc2c(C(=O)N3CCC[C@H]3c3ncc(-c4ccc(-c5ccc(-c6cnc([C@@H]7CCCN7C(=O)c7nc(Cl)cc8cc(OC)ccc78)[nH]6)cc5)cc4)[nH]3)nc(Cl)cc2c1 [Compound S-204],>100 fold
2,O=C(c1nccc2c(Cl)cccc12)N1CCC[C@H]1c1ncc(-c2ccc(-c3ccc(-c4cnc([C@@H]5CCCN5C(=O)c5nccc6c(Cl)cccc56)[nH]4)cc3)cc2)[nH]1 [Compound S-206],>100 fold
3,CCOC(=O)N[C@H](c1ncc(-c2ccc(-c3ccc(-c4cnc([C@@H](NC(=O)OCC)C(C)C)[nH]4)cc3)cc2)[nH]1)C(C)C [Compound S-207],>10 fold
4,CCCOC(=O)N[C@H](c1ncc(-c2ccc(-c3ccc(-c4cnc([C@@H](NC(=O)OCCC)C(C)C)[nH]4)cc3)cc2)[nH]1)C(C)C [Compound S-208],>100 fold
5,CCCCOC(=O)N[C@H](c1ncc(-c2ccc(-c3ccc(-c4cnc([C@@H](NC(=O)OCCCC)C(C)C)[nH]4)cc3)cc2)[nH]1)C(C)C [Compound S-209],>100 fold
6,CC(C)[C@H](NC(=O)OCC(C)(C)C)c1ncc(-c2ccc(-c3ccc(-c4cnc([C@@H](NC(=O)OCC(C)(C)C)C(C)C)[nH]4)cc3)cc2)[nH]1 [Compound S-210],>100 fold
7,CC(C)COC(=O)N[C@H](c1ncc(-c2ccc(-c3ccc(-c4cnc([C@@H](NC(=O)OCC(C)C)C(C)C)[nH]4)cc3)cc2)[nH]1)C(C)C [Compound S-211],>100 fold
8,C#CCOC(=O)N[C@H](c1ncc(-c2ccc(-c3ccc(-c4cnc([C@@H](NC(=O)OCC#C)C(C)C)[nH]4)cc3)cc2)[nH]1)C(C)C [Compound S-212],>10 fold
9,CC(C)[C@H](NC(=O)OC1CCCC1)c1ncc(-c2ccc(-c3ccc(-c4cnc([C@@H](NC(=O)OC5CCCC5)C(C)C)[nH]4)cc3)cc2)[nH]1 [Compound S-213],>100 fold
10,CC(C)[C@H](NC(=O)OCc1ccccc1)c1ncc(-c2ccc(-c3ccc(-c4cnc([C@@H](NC(=O)OCc5ccccc5)C(C)C)[nH]4)cc3)cc2)[nH]1 [Compound S-215],>100 fold
11,O=C(OCc1ccccc1)N1CCC[C@H]1c1ncc(-c2ccc(-c3ccc(-c4cnc([C@@H]5CCCN5C(=O)OCc5ccccc5)[nH]4)cc3)cc2)[nH]1 [Compound S-216],>10 fold
12,CCOC(=O)N1CCC[C@H]1c1ncc(-c2ccc(-c3ccc(-c4cnc([C@@H]5CCCN5C(=O)OCC)[nH]4)cc3)cc2)[nH]1 [Compound S-217],>10 fold
13,CCCOC(=O)N1CCC[C@H]1c1ncc(-c2ccc(-c3ccc(-c4cnc([C@@H]5CCCN5C(=O)OCCC)[nH]4)cc3)cc2)[nH]1 [Compound S-218],>10 fold
14,CCCCOC(=O)N1CCC[C@H]1c1ncc(-c2ccc(-c3ccc(-c4cnc([C@@H]5CCCN5C(=O)OCCCC)[nH]4)cc3)cc2)[nH]1 [Compound S-219],>10 fold
15,CC(C)OC(=O)N1CCC[C@H]1c1ncc(-c2ccc(-c3ccc(-c4cnc([C@@H]5CCCN5C(=O)OC(C)C)[nH]4)cc3)cc2)[nH]1 [Compound S-220],>10 fold
16,CC(C)(C)COC(=O)N1CCC[C@H]1c1ncc(-c2ccc(-c3ccc(-c4cnc([C@@H]5CCCN5C(=O)OCC(C)(C)C)[nH]4)cc3)cc2)[nH]1 [Compound S-221],>10 fold
17,CC(C)COC(=O)N1CCC[C@H]1c1ncc(-c2ccc(-c3ccc(-c4cnc([C@@H]5CCCN5C(=O)OCC(C)C)[nH]4)cc3)cc2)[nH]1 [Compound S-222],>10 fold
18,O=C(Oc1ccccc1)N1CCC[C@H]1c1ncc(-c2ccc(-c3ccc(-c4cnc([C@@H]5CCCN5C(=O)Oc5ccccc5)[nH]4)cc3)cc2)[nH]1 [Compound S-223],>100 fold
19,C#CCOC(=O)N1CCC[C@H]1c1ncc(-c2ccc(-c3ccc(-c4cnc([C@@H]5CCCN5C(=O)OCC#C)[nH]4)cc3)cc2)[nH]1 [Compound S-224],>10 fold
20,O=C(OC1CCCC1)N1CCC[C@H]1c1ncc(-c2ccc(-c3ccc(-c4cnc([C@@H]5CCCN5C(=O)OC5CCCC5)[nH]4)cc3)cc2)[nH]1 [Compound S-225],>10 fold
21,O=C(Oc1ccc2ccccc2c1)N1CCC[C@H]1c1ncc(-c2ccc(-c3ccc(-c4cnc([C@@H]5CCCN5C(=O)Oc5ccc6ccccc6c5)[nH]4)cc3)cc2)[nH]1 [Compound S-226],>100 fold
22,CC(C)[C@H](NC(=O)N(c1ccccc1)c1ccccc1)c1nc(-c2ccc(-c3ccc(-c4c[nH]c([C@@H](NC(=O)N(c5ccccc5)c5ccccc5)C(C)C)n4)cc3)cc2)c[nH]1 [Compound S-227],>100 fold
